Data taken from ChEMBL document CHEMBL3259546, “Chrotacumines G-J, chromone alkaloids from Dysoxylum acutangulum with osteoclast differentiation inhibitory activity” (Bioorg Med Chem Lett, 2014).

Experiments:
[1] = test system: Osteoclast; assay: Inhibition of RANKL-induced osteoclast differentiation in ICR mouse bone marrow after 48 hrs by TRAP assay; format: functional, cell-based
[2] = Cytotoxicity against ICR mouse osteoclasts by MTT assay; format: cell-based; details: osteoclast

COc1cc(/C=C/C(=O)O[C@@H]2CN(C)CC[C@@H]2c2c(O)cc(O)c3c(=O)cc(C)oc23)cc(OC)c1OC
IC50 [1]: 9.8 µM | inhibition [1]: Dose-dependent effect | Activity [2]: Non-toxic

COc1cc(C(=O)O[C@@H]2CN(C)CC[C@@H]2c2c(O)cc(O)c3c(=O)cc(C)oc23)ccc1O
IC50 [1]: 15.1 µM | inhibition [1]: Dose-dependent effect | Activity [2]: Non-toxic
